These results are taken from PMC5071162 (ACS chemical neuroscience, 2016).

For orientation: EC50 means the concentration giving half of the maximal effect. The low end stands for a more potent agent, the high end for a less potent agent.

Where two headings read alike, the source gives them in different places.

The experiment concerns the target human GPR88 (Homo sapiens, UniProt Q9GZN0). Kind of experiment: Lance cAMP assay using stable PPLS-HA-GPR88 CHO cells. It is filed as cell-based. The following applies: for agonist activity in words: qualitative SAR statement, Lance cAMP assay. In general terms: Cyclic AMP is a second messenger, typically raised through Gs and lowered through Gi signalling.

human GPR88, sequence (Q9GZN0 whole entry): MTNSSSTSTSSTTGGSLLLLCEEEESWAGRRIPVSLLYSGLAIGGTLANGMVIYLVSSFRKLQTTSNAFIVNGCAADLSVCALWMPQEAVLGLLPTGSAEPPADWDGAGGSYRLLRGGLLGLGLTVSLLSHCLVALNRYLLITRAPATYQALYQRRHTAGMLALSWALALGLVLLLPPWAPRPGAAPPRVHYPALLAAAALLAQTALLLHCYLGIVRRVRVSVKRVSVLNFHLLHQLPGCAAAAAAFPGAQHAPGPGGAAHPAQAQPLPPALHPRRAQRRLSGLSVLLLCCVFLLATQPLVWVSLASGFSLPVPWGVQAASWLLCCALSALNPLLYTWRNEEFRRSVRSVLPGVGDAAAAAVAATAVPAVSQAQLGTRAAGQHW

On to `CCc1ccc(-c2ccc(N(C[C@@H](N)[C@@H](C)CC)C(=O)[C@@H]3C[C@H]3c3ccccn3)cc2)cc1` (relative stereo) [5c, (1R*,2R*)-2-(Pyridin-2-yl)cyclopropanecarboxylic Acid [(2S,3S)-2-Amino-3-methylpentyl]-(4′-ethylbiphenyl-4-yl)amide], for which the EC50 reads like this: (EC50) 85 nM; (EC50 (nM)) 85 nM.

For `CCOC(=O)c1ccc(-c2ccc(N(C[C@@H](N)[C@@H](C)CC)C(=O)[C@@H]3C[C@H]3c3ccccn3)cc2)cc1` (relative stereo) [5u, (1R*,2R*)-2-(Pyridin-2-yl)cyclopropanecarboxylic Acid [(2S,3S)-2-Amino-3-methylpentyl]-(4′-ethoxycarbonylbiphenyl-4-yl)amide], the EC50 (EC50) is 257 nM.

With `CC[C@H](C)[C@H](N)CN(C(=O)[C@@H]1C[C@H]1c1ccccn1)c1ccc(-c2ccc(-c3ccccc3)cc2)cc1` (relative stereo) [5i, (1R*,2R*)-2-(Pyridin-2-yl)cyclopropanecarboxylic Acid [(2S,3S)-2-Amino-3-methylpentyl]-(4′-phenylbiphenyl-4-yl)amide], the EC50 (EC50) is 289 nM.

`CCCCCCc1ccc(-c2ccc(N(C[C@@H](N)[C@@H](C)CC)C(=O)[C@@H]3C[C@H]3c3ccccn3)cc2)cc1` (relative stereo) [5g, (1R*,2R*)-2-(Pyridin-2-yl)cyclopropanecarboxylic Acid [(2S,3S)-2-Amino-3-methylpentyl]-(4′-hexylbiphenyl-4-yl)amide]: under “EC50”, a half-maximal response (EC50) required 136 nM.

As to `CC[C@H](C)[C@H](N)CN(C(=O)[C@@H]1C[C@H]1c1ccccn1)c1ccc(-c2ccc(OC(C)C)cc2)cc1` (relative stereo) [5m, (1R*,2R*)-2-(Pyridin-2-yl)cyclopropanecarboxylic Acid [(2S,3S)-2-Amino-3-methylpentyl]-(4′-isopropoxybiphenyl-4-yl)amide], the EC50 was 77 nM.

Consider `CC[C@H](C)[C@H](N)CN(C(=O)[C@@H]1C[C@H]1c1ccccn1)c1ccc(-c2ccccc2)cc1` (relative stereo) [4d, (1R*,2R*)-2-(Pyridin-2-yl)cyclopropanecarboxylic Acid [(2S,3S)-2-Amino-3-methylpentyl]-(biphenyl-4-yl)amide], for which the EC50 is 283 nM.

As to “(1R*,2R*)-2-(Pyridin-2-yl)cyclopropanecarboxylic Acid [(2S,3S)-2-Amino-3-methylpentyl]-(4′-phenethylphenyl-4-yl)amide [4g]”, the “agonist activity in words” value is on record as “deteriorated activity”.

Turning to `CC[C@H](C)[C@H](N)CN(C(=O)[C@@H]1C[C@H]1c1ccccn1)c1ccc(-c2ccc(OC(F)(F)F)cc2)cc1` (relative stereo) [5k, (1R*,2R*)-2-(Pyridin-2-yl)cyclopropanecarboxylic Acid [(2S,3S)-2-Amino-3-methylpentyl]-(4′-trifluoromethoxybiphenyl-4-yl)amide], under “EC50”, the concentration giving a half-maximal response (EC50) is 139 nM.

Take `CC[C@H](C)[C@H](N)CN(C(=O)[C@@H]1C[C@H]1c1ccccn1)c1ccc(-c2ccc(Cl)cc2)cc1` (relative stereo) [5q, (1R*,2R*)-2-(Pyridin-2-yl)cyclopropanecarboxylic Acid [(2S,3S)-2-Amino-3-methylpentyl]-(4′-chlorobiphenyl-4-yl)amide]: for the setting “EC50”, the EC50 was 213 nM.

For `CC[C@H](C)[C@H](N)CN(C(=O)[C@@H]1C[C@H]1c1ccccn1)c1ccc(-c2ccc(NC(C)=O)cc2)cc1` (relative stereo) [5y, (1R*,2R*)-2-(Pyridin-2-yl)cyclopropanecarboxylic Acid [(2S,3S)-2-Amino-3-methylpentyl]-(4′-acetamidobiphenyl-4-yl)amide], the “agonist activity in words” value was “least activity in the series”.

Where the note is “EC50”, `CC[C@H](C)[C@H](N)CN(C(=O)[C@@H]1C[C@H]1c1ccccn1)c1ccc(-c2ccc(C(C)(C)C)cc2)cc1` (relative stereo) [5f, (1R*,2R*)-2-(Pyridin-2-yl)cyclopropanecarboxylic Acid [(2S,3S)-2-Amino-3-methylpentyl]-(4′-tert-butylbiphenyl-4-yl)amide] showed a 50% effective concentration (EC50) of 515 nM.

Take `CC[C@H](C)[C@H](N)CN(C(=O)[C@@H]1C[C@H]1c1ccccn1)c1ccc(-c2ccc(N(C)C)cc2)cc1` (relative stereo) [5x, (1R*,2R*)-2-(Pyridin-2-yl)cyclopropanecarboxylic Acid [(2S,3S)-2-Amino-3-methylpentyl]-[4′-(dimethylamino)biphenyl-4-yl]amide]: the concentration giving a half-maximal response (EC50) (EC50) is 294 nM.

Where the note is “EC50”, `CC[C@H](C)[C@H](N)CN(C(=O)[C@@H]1C[C@H]1c1ccccn1)c1ccc(-c2ccc(CC(C)C)cc2)cc1` (relative stereo) [5e, (1R*,2R*)-2-(Pyridin-2-yl)cyclopropanecarboxylic Acid [(2S,3S)-2-Amino-3-methylpentyl]-(4′-isobutylbiphenyl-4-yl)amide] gave an EC50 of 271 nM.

Compound `CC[C@H](C)[C@H](N)CN(C(=O)[C@@H]1C[C@H]1c1ccccn1)c1ccc(-c2ccc(C(C)C)cc2)cc1` (relative stereo) [5d, (1R*,2R*)-2-(Pyridin-2-yl)cyclopropanecarboxylic Acid [(2S,3S)-2-Amino-3-methylpentyl]-(4′-isopropylbiphenyl-4-yl)amide] had an EC50 (EC50) of 260 nM.

For the compound “(1R*,2R*)-2-(Pyridin-2-yl)cyclopropanecarboxylic Acid [(2S,3S)-2-Amino-3-methylpentyl]-(4′-phenoxyphenyl-4-yl)amide [4e]”, the “agonist activity in words” value is reported as “deteriorated activity”.

With “(1R*,2R*)-2-(Pyridin-2-yl)cyclopropanecarboxylic Acid [(2S,3S)-2-Amino-3-methylpentyl]-(4′-benzylphenyl-4-yl)amide [4f]”, the “agonist activity in words” value is reported as “deteriorated activity”.

Turning to `CC[C@H](C)[C@H](N)CN(C(=O)[C@@H]1C[C@H]1c1ccccn1)c1ccc(-c2ccc(OC)c(OC)c2)cc1` (relative stereo) [5n, (1R*,2R*)-2-(Pyridin-2-yl)cyclopropanecarboxylic Acid [(2S,3S)-2-Amino-3-methylpentyl]-(3′,4′-dimethoxybiphenyl-4-yl)amide], the “fold loss of activity” value was “approximately 10 fold”. Moreover, a half-maximal response (EC50) (EC50) required 917 nM.

Under “EC50”, `CC[C@H](C)[C@H](N)CN(C(=O)[C@@H]1C[C@H]1c1ccccn1)c1ccc(-c2ccc([N+](=O)[O-])cc2)cc1` (relative stereo) [5s, (1R*,2R*)-2-(Pyridin-2-yl)cyclopropanecarboxylic Acid [(2S,3S)-2-Amino-3-methylpentyl]-(4′-nitrobiphenyl-4-yl)amide] had an EC50 of 274 nM.

Take `CC[C@H](C)[C@H](N)CN(C(=O)[C@@H]1C[C@H]1c1ccccn1)c1ccc(-c2ccc3c(c2)OCO3)cc1` (relative stereo) [5o, (1R*,2R*)-2-(Pyridin-2-yl)cyclopropanecarboxylic Acid [(2S,3S)-2-Amino-3-methylpentyl]-(3′,4′-methylenedioxybiphenyl-4-yl)amide]: the concentration for a half-maximal effect (EC50) reads like this: (EC50) 204 nM; (EC50 (nM)) 204 nM.

With `CC[C@H](C)[C@H](N)CN(C(=O)[C@@H]1C[C@H]1c1ccccn1)c1ccc(-c2ccc(C(F)(F)F)cc2)cc1` (relative stereo) [5b, (1R*,2R*)-2-(Pyridin-2-yl)cyclopropanecarboxylic Acid [(2S,3S)-2-Amino-3-methylpentyl]-(4′-trifluoromethylbiphenyl-4-yl)amide], the EC50 (EC50) was 187 nM.
